Measurements: US11498899B2, “Nitrone herbicides” (FMC Corporation, priority 2016, dated 2022)

Assays:
rice (Oryza sativa) = experiment: Test B flooded paddy test, visual rating 0-100 (0 no effect, 100 complete control); conditions: Flood, 250 g ai/ha, applied to paddy water, rated after 13 to 15 days
[1] = tested on: barnyardgrass (Echinochloa crus-galli); experiment: Test B flooded paddy test, visual rating 0-100; conditions: Flood, 250 g ai/ha, applied to paddy water, rated after 13 to 15 days
[2] = tested on: pigweed (Amaranthus retroflexus); experiment: Test A preemergence, visual injury rating 0-100; type: in vivo; conditions: for Pigweed plant response rating (0 to 100 scale): 125 g ai/ha; for Pigweed plant response rating: 500 g ai/ha, 0 to 100 scale
Description: (§1) Seeds of plant species selected from barnyardgrass (Echinochloa crus-galli), kochia (Kochia scoparia), ragweed (common ragweed, Ambrosia elatior), ryegrass, Italian (Italian ryegrass, Lolium multiflorum), foxtail, giant (giant foxtail, Setaria faberii), foxtail, green (green foxtail, Setaria viridis), and pigweed (Amaranthus retroflexus) were planted into a blend of loam soil and sand and treated preemergence with a directed soil spray using test chemicals formulated in a non-phytotoxic solvent mixture which included a surfactant.
(§2) At the same time, plants selected from these weed species and also wheat (Triticum aestivum), corn (Zea mays), blackgrass (Alopecurus myosuroides), and galium (catchweed bedstraw, Galium aparine) were planted in pots containing the same blend of loam soil and sand and treated with postemergence applications of test chemicals formulated in the same manner. Plants ranged in height from 2 to 10 cm and were in the one- to two-leaf stage for the postemergence treatment. Treated plants and untreated controls were maintained in a greenhouse for approximately 10 days, after which time all treated plants were compared to untreated controls and visually evaluated for injury. […] A dash (-) response means no test result.

[3] = tested on: ragweed (common ragweed, Ambrosia elatior); experiment: Test A preemergence, visual injury rating 0-100; type: in vivo; conditions: for Ragweed plant response rating (0 to 100 scale): 125 g ai/ha; for Ragweed plant response rating: 500 g ai/ha, 0 to 100 scale
Description: as §1, §2

[4] = tested on: foxtail, giant (giant foxtail, Setaria faberii); experiment: Test A preemergence, visual injury rating 0-100; type: in vivo; conditions: for Foxtail, Giant plant response rating (0 to 100 scale): 125 g ai/ha; for Foxtail, Giant plant response rating: 500 g ai/ha, 0 to 100 scale
Description: as §1, §2

[5] = tested on: ryegrass, Italian (Italian ryegrass, Lolium multiflorum); experiment: Test A preemergence, visual injury rating 0-100; type: in vivo; conditions: for Ryegrass, Italian plant response rating (0 to 100 scale): 125 g ai/ha; for Ryegrass, Italian plant response rating: 500 g ai/ha, 0 to 100 scale
Description: as §1, §2

kochia (Kochia scoparia) [6] = experiment: Test A preemergence, visual injury rating 0-100; type: in vivo; conditions: for Kochia plant response rating (0 to 100 scale): 125 g ai/ha; for Kochia plant response rating: 500 g ai/ha, 0 to 100 scale
Description: as §1, §2

[7] = tested on: barnyardgrass (Echinochloa crus-galli); experiment: Test A preemergence, visual injury rating 0-100 (0 no effect, 100 complete control); type: in vivo; conditions: for Barnyardgrass plant response rating (0 to 100 scale): 125 g ai/ha; for Barnyardgrass plant response rating: 500 g ai/ha, 0 to 100 scale
Description: as §1, §2

[8] = tested on: pigweed (Amaranthus retroflexus); experiment: Test A postemergence, visual injury rating 0-100; type: in vivo; conditions: 0 to 100 scale
Description: as §1, §2

[9] = tested on: ragweed (common ragweed, Ambrosia elatior); experiment: Test A postemergence, visual injury rating 0-100; type: in vivo; conditions: 0 to 100 scale
Description: as §1, §2

corn (Zea mays) = experiment: Test A postemergence, visual injury rating 0-100; type: in vivo; conditions: 0 to 100 scale
Description: as §1, §2

[10] = tested on: foxtail, giant (giant foxtail, Setaria faberii); experiment: Test A postemergence, visual injury rating 0-100; type: in vivo; conditions: 0 to 100 scale
Description: as §1, §2

[11] = tested on: ryegrass, Italian (Italian ryegrass, Lolium multiflorum); experiment: Test A postemergence, visual injury rating 0-100; type: in vivo; conditions: 0 to 100 scale
Description: as §1, §2

kochia (Kochia scoparia) [12] = experiment: Test A postemergence, visual injury rating 0-100; type: in vivo; conditions: 0 to 100 scale
Description: as §1, §2

[13] = tested on: wheat (Triticum aestivum); experiment: Test A postemergence, visual injury rating 0-100; type: in vivo; conditions: 0 to 100 scale
Description: as §1, §2

[14] = tested on: blackgrass (Alopecurus myosuroides); experiment: Test A postemergence, visual injury rating 0-100; type: in vivo; conditions: 0 to 100 scale
Description: as §1, §2

[15] = tested on: galium (catchweed bedstraw, Galium aparine); experiment: Test A postemergence, visual injury rating 0-100; type: in vivo; conditions: 0 to 100 scale
Description: as §1, §2

[16] = tested on: barnyardgrass (Echinochloa crus-galli); experiment: Test A postemergence, visual injury rating 0-100; type: in vivo; conditions: 0 to 100 scale
Description: as §1, §2

[17] = tested on: ducksalad (Heteranthera limosa); experiment: Test B flooded paddy test, visual rating 0-100; conditions: Flood, 250 g ai/ha, applied to paddy water, rated after 13 to 15 days

| SMILES | Rice plant response rating (0 to 100 scale) (rice (Oryza sativa)) | Barnyardgrass plant response rating (0 to 100 scale) [1] | Pigweed plant response rating (0 to 100 scale) [2] | Pigweed plant response rating [2] | Ragweed plant response rating (0 to 100 scale) [3] | Ragweed plant response rating [3] | Foxtail, Giant plant response rating (0 to 100 scale) [4] | Foxtail, Giant plant response rating [4] | Ryegrass, Italian plant response rating (0 to 100 scale) [5] | Ryegrass, Italian plant response rating [5] | Kochia plant response rating (0 to 100 scale) (kochia (Kochia scoparia) [6]) | Kochia plant response rating (kochia (Kochia scoparia) [6]) | Barnyardgrass plant response rating (0 to 100 scale) [7] | Barnyardgrass plant response rating [7] | Pigweed plant response rating ([8]; 125 g ai/ha) | Pigweed plant response rating ([8]; 500 g ai/ha) | Ragweed plant response rating ([9]; 125 g ai/ha) | Ragweed plant response rating ([9]; 500 g ai/ha) | Corn plant response rating (corn (Zea mays); 125 g ai/ha) | Corn plant response rating (corn (Zea mays); 500 g ai/ha) | other results |
| --- | --- | --- | --- | --- | --- | --- | --- | --- | --- | --- | --- | --- | --- | --- | --- | --- | --- | --- | --- | --- | --- |
| CC1=[N+]([O-])C(C(=O)Nc2cccc(F)c2F)C(c2cccc(F)c2)C1 (racemic) [Compound 8] | 0 | 85 | 20 | 40 | 0 | 80 | 90 | 90 | 0 | 40 | 0 | 50 | 90 | 90 | 0 | 20 | 0 | 0 | 0 | 0 | Foxtail, Giant plant response rating ([10]; 125 g ai/ha): 90; Foxtail, Giant plant response rating ([10]; 500 g ai/ha): 90; Ryegrass, Italian plant response rating ([11]; 125 g ai/ha): 0; Ryegrass, Italian plant response rating ([11]; 500 g ai/ha): 50; Kochia plant response rating (kochia (Kochia scoparia) [12]; 125 g ai/ha): 0; Kochia plant response rating (kochia (Kochia scoparia) [12]; 500 g ai/ha): 40; Wheat plant response rating ([13]; 125 g ai/ha): 0; Wheat plant response rating ([13]; 500 g ai/ha): 50; Blackgrass plant response rating ([14]; 125 g ai/ha): 0; Blackgrass plant response rating ([14]; 500 g ai/ha): 30; Galium plant response rating ([15]; 125 g ai/ha): 20; Galium plant response rating ([15]; 500 g ai/ha): 60; Barnyardgrass plant response rating ([16]; 125 g ai/ha): 50; Barnyardgrass plant response rating ([16]; 500 g ai/ha): 90; Ducksalad plant response rating (0 to 100 scale) [17]: 100 |
| CC1=[N+]([O-])C(C(=O)Nc2cccc(F)c2F)C(c2ccc3c(c2)OCO3)C1 (racemic) [Compound 4] | 10 | 60 | 20 | 90 | 0 | 100 | 100 | 100 | 0 | 20 | 0 | 80 | 100 | 100 | 0 | 20 | 0 | 50 | 0 | 60 | Foxtail, Giant plant response rating ([10]; 125 g ai/ha): 40; Foxtail, Giant plant response rating ([10]; 500 g ai/ha): 90; Ryegrass, Italian plant response rating ([11]; 125 g ai/ha): 0; Ryegrass, Italian plant response rating ([11]; 500 g ai/ha): 40; Kochia plant response rating (kochia (Kochia scoparia) [12]; 125 g ai/ha): 0; Kochia plant response rating (kochia (Kochia scoparia) [12]; 500 g ai/ha): 50; Wheat plant response rating ([13]; 125 g ai/ha): 0; Wheat plant response rating ([13]; 500 g ai/ha): 60; Blackgrass plant response rating ([14]; 125 g ai/ha): 0; Blackgrass plant response rating ([14]; 500 g ai/ha): 20; Galium plant response rating ([15]; 125 g ai/ha): 30; Galium plant response rating ([15]; 500 g ai/ha): 60; Barnyardgrass plant response rating ([16]; 125 g ai/ha): 50; Barnyardgrass plant response rating ([16]; 500 g ai/ha): 90; Ducksalad plant response rating (0 to 100 scale) [17]: 40 |
| CC1=[N+]([O-])C(C(=O)Nc2cccc(F)c2F)C(c2ccccc2C)C1 (racemic) [Compound 11] | 15 | 90 | 0 | 0 | 40 | 30 | 90 | 100 | 0 | 0 | 0 | 0 | 80 | 100 | 0 | 0 | 0 | 0 | 0 | 0 | Foxtail, Giant plant response rating ([10]; 125 g ai/ha): 30; Foxtail, Giant plant response rating ([10]; 500 g ai/ha): 90; Ryegrass, Italian plant response rating ([11]; 125 g ai/ha): 0; Ryegrass, Italian plant response rating ([11]; 500 g ai/ha): 0; Kochia plant response rating (kochia (Kochia scoparia) [12]; 125 g ai/ha): 0; Kochia plant response rating (kochia (Kochia scoparia) [12]; 500 g ai/ha): 0; Wheat plant response rating ([13]; 125 g ai/ha): 0; Wheat plant response rating ([13]; 500 g ai/ha): 20; Blackgrass plant response rating ([14]; 125 g ai/ha): 0; Blackgrass plant response rating ([14]; 500 g ai/ha): 0; Galium plant response rating ([15]; 125 g ai/ha): 0; Galium plant response rating ([15]; 500 g ai/ha): 20; Barnyardgrass plant response rating ([16]; 125 g ai/ha): 40; Barnyardgrass plant response rating ([16]; 500 g ai/ha): 90; Ducksalad plant response rating (0 to 100 scale) [17]: 100 |
